# Experimental data reported in US20160289186A1, “FLUOROMETHYL-SUBSTITUTED PYRROLE CA[…]” (Grunenthal GmbH, priority 2013, published 2016).
# Target: T1, Human CaV2.2 channels (Homo sapiens, UniProt Q00975)
# T1 construct: expressed in transfected cells; host or cells: HEK293
# Assay: Fluorescent (FLIPR) assay for CaV2.2 channels using potassium depolarization to induce channel opening
# Type: cell-based
# Settings: 3 μM compound; 30 mM KCl assay buffer (inactivated channel state); HEK293 cells stably expressing human CaV2.2; read-out: Activity Category: %-Inhib (CaV2.2) @3 μM @30 mM KCl
# Procedure, shortened: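 HEK293 cells stably co-expressing human CaV2.2 with α2δ and β subunits plus Kir2.3, Fluo-4 loaded; compounds preincubated 15 min at 25 °C in 1 mM or 30 mM KCl buffer (inactivated state), pH 7.4. Depolarized by KCl addition; baseline-normalized peak fluorescence (ex 480/em 535 nm) gave inhibition.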
# T1 sequence (Q00975 whole entry): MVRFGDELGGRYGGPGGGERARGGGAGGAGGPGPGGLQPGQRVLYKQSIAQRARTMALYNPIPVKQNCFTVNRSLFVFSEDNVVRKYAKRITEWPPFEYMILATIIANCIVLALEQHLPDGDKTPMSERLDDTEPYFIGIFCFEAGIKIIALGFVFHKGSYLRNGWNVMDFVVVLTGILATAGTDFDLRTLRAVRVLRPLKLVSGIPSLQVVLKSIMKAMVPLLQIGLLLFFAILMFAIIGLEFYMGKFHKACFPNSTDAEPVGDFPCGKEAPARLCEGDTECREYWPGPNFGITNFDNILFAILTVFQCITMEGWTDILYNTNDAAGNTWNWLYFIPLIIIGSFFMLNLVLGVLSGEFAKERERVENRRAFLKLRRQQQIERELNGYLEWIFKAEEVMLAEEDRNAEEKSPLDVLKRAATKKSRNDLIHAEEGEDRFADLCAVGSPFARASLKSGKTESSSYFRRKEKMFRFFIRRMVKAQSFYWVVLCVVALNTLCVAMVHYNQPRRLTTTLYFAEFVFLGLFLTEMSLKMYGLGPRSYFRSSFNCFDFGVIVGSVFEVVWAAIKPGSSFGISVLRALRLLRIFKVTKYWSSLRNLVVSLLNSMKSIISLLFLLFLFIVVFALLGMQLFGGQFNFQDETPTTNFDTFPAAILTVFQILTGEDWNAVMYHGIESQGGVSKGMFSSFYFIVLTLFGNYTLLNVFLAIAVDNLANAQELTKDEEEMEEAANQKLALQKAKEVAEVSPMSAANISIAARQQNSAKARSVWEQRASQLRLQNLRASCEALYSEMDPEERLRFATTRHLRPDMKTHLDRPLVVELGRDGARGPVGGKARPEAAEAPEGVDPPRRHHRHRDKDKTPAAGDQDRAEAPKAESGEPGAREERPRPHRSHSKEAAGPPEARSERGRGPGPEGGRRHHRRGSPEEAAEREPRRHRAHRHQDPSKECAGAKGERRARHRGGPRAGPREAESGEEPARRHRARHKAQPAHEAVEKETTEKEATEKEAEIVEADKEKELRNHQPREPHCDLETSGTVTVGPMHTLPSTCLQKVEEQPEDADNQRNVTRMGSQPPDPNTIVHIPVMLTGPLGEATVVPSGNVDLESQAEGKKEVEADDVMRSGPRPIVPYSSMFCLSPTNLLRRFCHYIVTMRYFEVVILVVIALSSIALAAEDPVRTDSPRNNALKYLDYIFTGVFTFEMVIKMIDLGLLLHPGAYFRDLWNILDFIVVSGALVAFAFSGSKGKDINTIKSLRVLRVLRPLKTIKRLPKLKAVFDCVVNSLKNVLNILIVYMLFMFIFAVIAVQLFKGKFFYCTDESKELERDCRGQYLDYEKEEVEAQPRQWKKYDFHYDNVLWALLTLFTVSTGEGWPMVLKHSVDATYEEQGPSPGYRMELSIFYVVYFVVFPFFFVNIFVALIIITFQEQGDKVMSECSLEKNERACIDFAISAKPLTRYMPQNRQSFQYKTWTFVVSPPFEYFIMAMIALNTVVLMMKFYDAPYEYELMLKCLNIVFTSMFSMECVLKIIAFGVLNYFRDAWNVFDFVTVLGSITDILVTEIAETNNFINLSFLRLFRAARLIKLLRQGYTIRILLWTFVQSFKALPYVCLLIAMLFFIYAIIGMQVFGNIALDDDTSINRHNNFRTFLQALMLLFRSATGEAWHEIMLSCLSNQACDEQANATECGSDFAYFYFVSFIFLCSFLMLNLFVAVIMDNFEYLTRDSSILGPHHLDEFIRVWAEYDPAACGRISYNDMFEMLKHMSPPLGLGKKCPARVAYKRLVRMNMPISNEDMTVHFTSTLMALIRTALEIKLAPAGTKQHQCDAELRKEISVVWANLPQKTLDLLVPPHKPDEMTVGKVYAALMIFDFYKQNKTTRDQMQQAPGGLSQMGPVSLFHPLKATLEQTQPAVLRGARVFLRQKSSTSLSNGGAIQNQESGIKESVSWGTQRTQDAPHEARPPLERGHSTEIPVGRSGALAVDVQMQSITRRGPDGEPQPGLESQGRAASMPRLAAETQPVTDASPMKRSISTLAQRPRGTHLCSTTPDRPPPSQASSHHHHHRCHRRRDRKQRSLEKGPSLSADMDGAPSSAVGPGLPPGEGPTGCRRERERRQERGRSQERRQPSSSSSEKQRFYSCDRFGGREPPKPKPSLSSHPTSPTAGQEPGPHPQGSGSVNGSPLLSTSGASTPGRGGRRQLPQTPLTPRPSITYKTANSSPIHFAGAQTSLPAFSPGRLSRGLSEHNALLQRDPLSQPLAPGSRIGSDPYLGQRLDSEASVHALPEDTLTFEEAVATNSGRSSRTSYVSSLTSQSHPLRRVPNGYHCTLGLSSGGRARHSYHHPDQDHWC
# T1 sequence (P54284 whole entry, further chain): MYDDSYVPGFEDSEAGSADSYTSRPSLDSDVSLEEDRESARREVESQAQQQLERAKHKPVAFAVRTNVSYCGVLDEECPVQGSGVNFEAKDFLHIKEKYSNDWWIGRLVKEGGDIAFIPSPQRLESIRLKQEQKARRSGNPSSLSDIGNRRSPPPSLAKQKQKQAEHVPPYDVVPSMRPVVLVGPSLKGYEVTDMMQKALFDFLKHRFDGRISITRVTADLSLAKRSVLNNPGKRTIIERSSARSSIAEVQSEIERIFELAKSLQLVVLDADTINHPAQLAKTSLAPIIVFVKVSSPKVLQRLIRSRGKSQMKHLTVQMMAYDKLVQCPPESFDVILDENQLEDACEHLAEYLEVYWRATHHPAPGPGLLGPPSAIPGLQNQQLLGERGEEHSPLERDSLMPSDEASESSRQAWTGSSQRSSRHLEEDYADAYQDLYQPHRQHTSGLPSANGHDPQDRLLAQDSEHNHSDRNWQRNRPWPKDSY
# T1 sequence (P54289 25-1103, further chain): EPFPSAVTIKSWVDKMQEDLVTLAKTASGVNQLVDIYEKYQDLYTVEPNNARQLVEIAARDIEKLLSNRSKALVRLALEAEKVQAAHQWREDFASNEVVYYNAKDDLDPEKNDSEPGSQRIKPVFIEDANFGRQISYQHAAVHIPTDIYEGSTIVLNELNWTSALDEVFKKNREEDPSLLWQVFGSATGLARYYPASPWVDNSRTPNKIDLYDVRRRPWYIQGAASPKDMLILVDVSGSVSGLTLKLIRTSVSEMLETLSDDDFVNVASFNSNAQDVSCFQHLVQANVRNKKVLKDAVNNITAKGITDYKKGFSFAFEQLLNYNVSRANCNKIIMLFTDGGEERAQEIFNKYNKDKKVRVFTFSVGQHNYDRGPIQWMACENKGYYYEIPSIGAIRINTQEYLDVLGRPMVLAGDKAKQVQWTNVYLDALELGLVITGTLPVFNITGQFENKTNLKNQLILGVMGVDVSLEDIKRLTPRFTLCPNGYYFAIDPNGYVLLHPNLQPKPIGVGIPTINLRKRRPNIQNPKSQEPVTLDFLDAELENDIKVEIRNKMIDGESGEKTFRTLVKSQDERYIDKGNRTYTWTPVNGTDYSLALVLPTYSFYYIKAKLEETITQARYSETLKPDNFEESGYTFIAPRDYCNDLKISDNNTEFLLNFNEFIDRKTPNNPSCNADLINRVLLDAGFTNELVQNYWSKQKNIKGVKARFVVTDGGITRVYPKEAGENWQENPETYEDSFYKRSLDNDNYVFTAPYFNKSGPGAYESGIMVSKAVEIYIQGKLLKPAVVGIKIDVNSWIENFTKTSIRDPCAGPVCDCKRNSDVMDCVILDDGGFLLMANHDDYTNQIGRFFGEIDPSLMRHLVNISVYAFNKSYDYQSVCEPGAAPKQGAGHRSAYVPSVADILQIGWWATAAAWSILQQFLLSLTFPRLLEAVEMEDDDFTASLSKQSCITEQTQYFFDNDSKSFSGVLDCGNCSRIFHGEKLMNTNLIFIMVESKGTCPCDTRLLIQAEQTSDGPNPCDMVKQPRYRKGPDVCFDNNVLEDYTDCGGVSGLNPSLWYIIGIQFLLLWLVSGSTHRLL
row,Compound,inhibition at 3 µM [%]
1,"Cc1c(-c2ccc(Cl)cc2)c(C(=O)N2CCOCC2)n(CC2(C)CC2)c1C(F)(F)F [Example 087, [3-(4-Chlorophenyl)-4-methyl-1-[(1-methyl-cyclopropyl)-methyl]-5-(trifluoromethyl)-1H-pyrrol-2-yl]-morpholin-4-yl-methanone]",> 95
2,"CN(CC(C)(C)C)C(=O)c1c(-c2ccc(Cl)cc2)cc(C(F)(F)F)n1CC1(N)CC1 [Example 088, 1-[(1-Amino-cyclopropyl)-methyl]-3-(4-chlorophenyl)-N-(2,2-dimethyl-propyl)-N-methyl-5-(trifluoromethyl)-1H-pyrrole-2-carboxylic acid amide]",75 to 95
3,"Cc1c(-c2ccc(Cl)cc2)c(C(=O)N2CCOCC2)n(CC2(O)CC2)c1C(F)(F)F [Example 089, [3-(4-Chlorophenyl)-1-[(1-hydroxy-cyclopropyl)-methyl]-4-methyl-5-(trifluoromethyl)-1H-pyrrol-2-yl]-morpholin-4-yl-methanone]",> 95
4,"CN(CC(C)(C)C)C(=O)c1c(-c2ccc(Cl)cc2)cc(C(F)(F)F)n1CC1(O)CCCC1 [Example 090, 3-(4-Chlorophenyl)-N-(2,2-dimethyl-propyl)-1-[(1-hydroxy-cyclopentyl)-methyl]-N-methyl-5-(trifluoromethyl)-1H-pyrrole-2-carboxylic acid amide]",75 to 95
5,"CN(CC(C)(C)C)C(=O)c1c(-c2ccc(Cl)cc2)cc(C(F)(F)F)n1CC1CCCN1 (centres unmarked) [Example 091, 3-(4-Chlorophenyl)-N-(2,2-dimethyl-propyl)-N-methyl-1-(pyrrolidin-2-yl-methyl)-5-(trifluoromethyl)-1H-pyrrole-2-carboxylic acid amide]",> 95
6,"Cc1c(-c2ccc(Cl)cc2)c(C(=O)N(C)CCS(C)(=O)=O)n(CC2(N)CC2)c1C(F)(F)F [Example 093, 1-[(1-Amino-cyclopropyl)-methyl]-3-(4-chlorophenyl)-N,4-dimethyl-N-(2-methylsulfonyl-ethyl)-5-(trifluoromethyl)-1H-pyrrole-2-carboxylic acid amide]",75 to 95
7,"Cc1c(-c2ccc(Cl)cc2)c(C(=O)N(C)CCS(C)(=O)=O)n(CC2(O)CCCC2)c1C(F)(F)F [Example 094, 3-(4-Chlorophenyl)-1-[(1-hydroxy-cyclopentyl)-methyl]-N,4-dimethyl-N-(2-methylsulfonyl-ethyl)-5-(trifluoromethyl)-1H-pyrrole-2-carboxylic acid amide]",> 95
8,"Cc1c(-c2ccc(Cl)cc2)c(C(=O)N2CCOCC2)n(CC2(N)CC2)c1C(F)(F)F [Example 095, [1-[(1-Amino-cyclopropyl)-methyl]-3-(4-chlorophenyl)-4-methyl-5-(trifluoromethyl)-1H-pyrrol-2-yl]-morpholin-4-yl-methanone]",75 to 95
9,"Cc1c(-c2ccc(Cl)cc2)c(C(=O)N2CCOCC2)n(CC2(O)CCCC2)c1C(F)(F)F [Example 096, [3-(4-Chlorophenyl)-1-[(1-hydroxy-cyclopentyl)-methyl]-4-methyl-5-(trifluoromethyl)-1H-pyrrol-2-yl]-morpholin-4-yl-methanone]",75 to 95
10,"Cc1c(-c2ccc(Cl)cc2)c(C(=O)N2CCOCC2)n(CC2CCOCC2)c1C(F)(F)F [Example 097, [3-(4-Chlorophenyl)-4-methyl-1-(tetrahydro-pyran-4-yl-methyl)-5-(trifluoromethyl)-1H-pyrrol-2-yl]-morpholin-4-yl-methanone]",> 95
11,"Cc1c(-c2ccc(Cl)cc2)c(C(=O)N2CCOCC2)n(CCN2CC(F)(F)C2)c1C(F)(F)F [Example 098, [3-(4-Chlorophenyl)-1-[2-(3,3-difluoro-azetidin-1-yl)-ethyl]-4-methyl-5-(trifluoromethyl)-1H-pyrrol-2-yl]-morpholin-4-yl-methanone]",> 95
12,"Cc1c(-c2ccc(Cl)cc2)c(C(=O)N2CCOCC2)n(CCS(C)(=O)=O)c1C(F)(F)F [Example 099, [3-(4-Chlorophenyl)-4-methyl-1-(2-methylsulfonyl-ethyl)-5-(trifluoromethyl)-1H-pyrrol-2-yl]-morpholin-4-yl-methanone]",40 to 75
13,"CN(CC(C)(C)C)C(=O)c1c(-c2ccc(Cl)cc2)cc(C(F)(F)F)n1CC1(C#N)CC1 [Example 100, 3-(4-Chlorophenyl)-1-[(1-cyano-cyclopropyl)-methyl]-N-(2,2-dimethyl-propyl)-N-methyl-5-(trifluoromethyl)-1H-pyrrole-2-carboxylic acid amide]",75 to 95
14,"Cc1c(-c2ccc(Cl)cc2)c(C(=O)N2CCOC(C)(C)C2)n(C)c1C(F)(F)F [Example 102, [3-(4-Chlorophenyl)-1,4-dimethyl-5-(trifluoromethyl)-1H-pyrrol-2-yl]-(2,2-dimethyl-morpholin-4-yl)-methanone]",75 to 95
15,"CCn1c(C(=O)N2CCOC(C)(C)C2)c(-c2ccc(Cl)cc2)c(C)c1C(F)(F)F [Example 103, [3-(4-Chlorophenyl)-1-ethyl-4-methyl-5-(trifluoromethyl)-1H-pyrrol-2-yl]-(2,2-dimethyl-morpholin-4-yl)-methanone]",75 to 95
16,"Cc1c(-c2ccc(Cl)cc2)c(C(=O)N2CC3CC2CO3)n(CC(C)C)c1C(F)(F)F (centres unmarked) [Example 104, [3-(4-Chlorophenyl)-4-methyl-1-(2-methyl-propyl)-5-(trifluoromethyl)-1H-pyrrol-2-yl]-(2-oxa-5-azabicyclo[2.2.1]heptan-5-yl)-methanone]",> 95
17,"Cc1c(-c2ccc(Cl)cc2)c(C(=O)N(C)CC(C)(C)C(N)=O)n(C(C)C)c1C(F)(F)F [Example 105, N-(2-Carbamoyl-2-methyl-propyl)-3-(4-chlorophenyl)-1-isopropyl-N,4-dimethyl-5-(trifluoromethyl)-1H-pyrrole-2-carboxylic acid amide]",75 to 95
18,"Cc1c(-c2ccc(Cl)cc2)c(C(=O)N(C)CC(C)(C)C#N)n(C(C)C)c1C(F)(F)F [Example 106, 3-(4-Chlorophenyl)-N-(2-cyano-2-methyl-propyl)-1-isopropyl-N,4-dimethyl-5-(trifluoromethyl)-1H-pyrrole-2-carboxylic acid amide]",75 to 95
19,"Cc1cc(CN(C)C(=O)c2c(-c3ccc(Cl)cc3)c(C)c(C(F)(F)F)n2C(C)C)no1 [Example 107, 3-(4-Chlorophenyl)-1-isopropyl-N,4-dimethyl-N-[(5-methyl-isoxazol-3-yl)-methyl]-5-(trifluoromethyl)-1H-pyrrole-2-carboxylic acid amide]",> 95
20,"Cc1c(-c2ccc(Cl)cc2)c(C(=O)N(C)C(C)C)n(C(C)C)c1C(F)(F)F [Example 108, 3-(4-Chlorophenyl)-N,1-diisopropyl-N,4-dimethyl-5-(trifluoromethyl)-1H-pyrrole-2-carboxylic acid amide]",> 95
21,"Cc1c(-c2ccc(Cl)cc2)c(C(=O)N(C)C(C)C)n(CC(C)C)c1C(F)(F)F [Example 109, 3-(4-Chlorophenyl)-N-isopropyl-N,4-dimethyl-1-(2-methyl-propyl)-5-(trifluoromethyl)-1H-pyrrole-2-carboxylic acid amide]",75 to 95
22,"Cc1c(-c2ccc(Cl)cc2)c(C(=O)N(C)CCS(C)(=O)=O)n(C(C)C)c1C(F)(F)F [Example 110, 3-(4-Chlorophenyl)-1-isopropyl-N,4-dimethyl-N-(2-methylsulfonyl-ethyl)-5-(trifluoromethyl)-1H-pyrrole-2-carboxylic acid amide]",75 to 95
23,"Cc1c(-c2ccc(Cl)cc2)c(C(=O)N(C)Cc2ccnn2C)n(C(C)C)c1C(F)(F)F [Example 111, 3-(4-Chlorophenyl)-1-isopropyl-N,4-dimethyl-N-[(2-methyl-2H-pyrazol-3-yl)-methyl]-5-(trifluoromethyl)-1H-pyrrole-2-carboxylic acid amide]",75 to 95
24,"Cc1c(-c2ccc(Cl)cn2)c(C(=O)N2CCOC(C)(C)C2)n(C(C)C)c1C(F)(F)F [Example 112, [3-(5-Chloro-pyridin-2-yl)-1-isopropyl-4-methyl-5-(trifluoromethyl)-1H-pyrrol-2-yl]-(2,2-dimethyl-morpholin-4-yl)-methanone]",40 to 75
25,"Cc1cc(CN(C)C(=O)c2c(-c3ccc(Cl)cn3)c(C)c(C(F)(F)F)n2C(C)C)no1 [Example 113, 3-(5-Chloro-pyridin-2-yl)-1-isopropyl-N,4-dimethyl-N-[(5-methyl-isoxazol-3-yl)-methyl]-5-(trifluoromethyl)-1H-pyrrole-2-carboxylic acid amide]",75 to 95
26,"Cc1c(-c2ccc(Cl)cn2)c(C(=O)N(C)Cc2ccnn2C)n(C(C)C)c1C(F)(F)F [Example 114, 3-(5-Chloro-pyridin-2-yl)-1-isopropyl-N,4-dimethyl-N-[(2-methyl-2H-pyrazol-3-yl)-methyl]-5-(trifluoromethyl)-1H-pyrrole-2-carboxylic acid amide]",40 to 75
27,"Cc1c(-c2ccc(Cl)cc2)c(C(=O)N(C)C2CCNC2=O)n(C(C)C)c1C(F)(F)F (centres unmarked) [Example 115, 3-(4-Chlorophenyl)-1-isopropyl-N,4-dimethyl-N-(2-oxo-pyrrolidin-3-yl)-5-(trifluoromethyl)-1H-pyrrole-2-carboxylic acid amide]",75 to 95
28,"Cc1c(-c2ccc(Cl)cn2)c(C(=O)N(C)CC(C)(C)C(N)=O)n(C(C)C)c1C(F)(F)F [Example 116, N-(2-Carbamoyl-2-methyl-propyl)-3-(5-chloro-pyridin-2-yl)-1-isopropyl-N,4-dimethyl-5-(trifluoromethyl)-1H-pyrrole-2-carboxylic acid amide]",40 to 75
29,"Cc1c(-c2ccc(Cl)cn2)c(C(=O)N(C)CC(C)(C)C#N)n(C(C)C)c1C(F)(F)F [Example 117, 3-(5-Chloro-pyridin-2-yl)-N-(2-cyano-2-methyl-propyl)-1-isopropyl-N,4-dimethyl-5-(trifluoromethyl)-1H-pyrrole-2-carboxylic acid amide]",75 to 95
